Data from the NIST ThermoML archive (doi:10.1016/j.fluid.2007.09.023).

Experiment: molar heat capacity at constant volume
Settings: Vacuum adiabatic calorimetry

Cc1ccccc1 [toluene]
Fluid (supercritical or subcritical phases)
Settings | molar heat capacity at constant volume [J/K/mol]
386.9 K, Mass density=777.8 kg/m3 | 147.79
387.48 K, Mass density=777.8 kg/m3 | 147.7
387.84 K, Mass density=777.8 kg/m3 | 146.41
388.65 K, Mass density=777.8 kg/m3 | 146.96
392.83 K, Mass density=777.8 kg/m3 | 145.67
393.6 K, Mass density=777.8 kg/m3 | 144.01
399.34 K, Mass density=777.8 kg/m3 | 146.68
411.33 K, Mass density=777.8 kg/m3 | 148.9
413.55 K, Mass density=777.8 kg/m3 | 149.08
545.3 K, Mass density=555.25 kg/m3 | 189.99
545.51 K, Mass density=555.25 kg/m3 | 189.07
545.84 K, Mass density=555.25 kg/m3 | 188.79
545.93 K, Mass density=555.25 kg/m3 | 189.44
548.72 K, Mass density=555.25 kg/m3 | 187.41
549.32 K, Mass density=555.25 kg/m3 | 189.25
550.41 K, Mass density=555.25 kg/m3 | 188.52
589.54 K, Mass density=214.64 kg/m3 | 349.57
589.66 K, Mass density=214.64 kg/m3 | 307.47
589.72 K, Mass density=214.64 kg/m3 | 299.45
589.84 K, Mass density=214.64 kg/m3 | 280.47
590.03 K, Mass density=214.64 kg/m3 | 271.9
590.09 K, Mass density=214.64 kg/m3 | 264.9
590.51 K, Mass density=214.64 kg/m3 | 250.8
590.58 K, Mass density=214.64 kg/m3 | 252.92

molar heat capacity at constant volume [J/K/mol]
Settings | 386.9 K | 545.3 K | 589.54 K | 591.72 K | 591.84 K | 591.85 K | 591.87 K | 591.88 K
Gas | – | – | 349.57 | 385.6 | 425.4 | – | – | –
Liquid | 147.79 | 189.99 | – | – | – | 331.51 | 422.18 | 442.26
